Results: paper PMC10636063, “Progesterone activation of β1-containing BK channels involves two binding sites” (Nature Communications, 2023)
Where “and” joins values, the source holds several entries; their conditions need not be identical. Equal values may be shown once.

How the values were obtained:
Design in all cases: species or system mouse
[1] = tested on: de-endothelialized, pressurized MCA segments (C57BL/6 male); test: EtOH-induced constriction of pressurized MCA in vitro; details: for change in artery diameter (EtOH-induced constriction): Fig 8B, individual replicates
Source text: Eight-12 week-old C57BL/6J and KCNMB1^−/− on C57BL/6 background mice of both sexes were deeply anesthetized with isoflurane via inhalation in a tightly sealed jar. Resistance size MCAs (~100 μm in external diameter) were dissected out of the mouse brains after animal euthanasia with sharp scissors. For de-endothelialized records, the endothelium was removed by passing an air bubble into the vessel lumen for 90 s[30]. This method has been consistently used by our group and validated using endothelium-dependent versus endothelium-independent vasodilators[16],[26]. Arteries were cannulated as previously described by our group[26],[40]. MCAs were cut into 5 to 10 mm-long segments under a microscope (Nikon SMZ645). The segment was cannulated at each end, and the artery exterior was continuously perfused with physiologic sodium saline (PSS) of the following composition (mM): 119 NaCl, 4.7 KCl, 1.2 KH2PO4, 1.6 CaCl2, 1.2 MgSO4, 0.023 EDTA, 11 glucose, 24 NaHCO3, pH=7.4. PSS was continuously bubbled with an O2/CO2/N2 (21/5/74%) gas mixture and maintained at 35–37 °C. The artery external wall diameter was measured using the automatic edge-detection function of lonWizard software (lonOptix) via Sanyo VCB-3512T camera (Sanyo Electric Co.). Arteries were first incubated at an intravascular pressure of 10 mm Hg for 10 min. Then intravascular pressure was increased to 60 mmHg and held steady throughout the experiment to induce myogenic tone development and maintenance[19],[30],[51]. Each artery segment was exposed to PROG, PROG-oxime (in presence and absence of 1 µM paxilline) only once to avoid development of desensitization during repeated applications of PROG-containing solution. To determine arterial viability, arterial contractility was probed with a high KCl solution at the end of each experiment. The high KCl solution was composed of the following composition (mM): 63.7 NaCl, 60 KCl, 1.2 KH2PO4, 1.2 MgSO4, 0.023 EDTA, 11 glucose, 24 NaHCO3, 1.6 CaCl2, pH=7.4. Like PSS, the high-KCl solution was continuously bubbled with O2/CO2/N2 (21/5/74%) gas mixture and maintained at 35–37 °C.

[2] = tested on: de-endothelialized MCA segments of KCNMB1-/- mice permeabilized with β1 constructs; test: Cerebral artery diameter in vitro, KCNMB1-/- MCA permeabilized with β1 constructs; details: Y32V and W163I substitutions; 50 mM EtOH
Source text: Eight-12 week-old C57BL/6J and KCNMB1^−/− on C57BL/6 background mice of both sexes were deeply anesthetized with isoflurane via inhalation in a tightly sealed jar. […] For de-endothelialized records, the endothelium was removed by passing an air bubble into the vessel lumen for 90 s[30]. This method has been consistently used by our group and validated using endothelium-dependent versus endothelium-independent vasodilators[16],[26]. Arteries were cannulated as previously described by our group[26],[40]. […] PSS was continuously bubbled with an O2/CO2/N2 (21/5/74%) gas mixture and maintained at 35–37 °C. The artery external wall diameter was measured using the automatic edge-detection function of lonWizard software (lonOptix) via Sanyo VCB-3512T camera (Sanyo Electric Co.). Arteries were first incubated at an intravascular pressure of 10 mm Hg for 10 min. Then intravascular pressure was increased to 60 mmHg and held steady throughout the experiment to induce myogenic tone development and maintenance[19],[30],[51]. […] To determine arterial viability, arterial contractility was probed with a high KCl solution at the end of each experiment. […] Like PSS, the high-KCl solution was continuously bubbled with O2/CO2/N2 (21/5/74%) gas mixture and maintained at 35–37 °C. […]

[3] = tested on: MCA branches (C57BL/6J); test: EtOH-induced cerebrovascular constriction in vivo (cranial window); details: individual replicates; for artery diameter, normalized to time 0: Fig 8E
Procedure: Eight-12 week-old male and female C57BL/6J mice were anesthetized with a mixture of xylazine/ketamine (12/100 mg per kg) and kept anesthetized for the duration of the experiment with subsequent ketamine doses (50 mg/kg of weight) as needed. A catheter was inserted into the carotid artery so that the infusion went straight to the brain rather than towards the thoracic cavity. An area of the skull was cleared of tissue and thinned to expose the branching arteries originating from the MCA on the side the catheter was inserted, above the zygomatic arch, between the ear and eye of the skull[19],[34]. The exposed arteries branching out from the MCA were monitored using a Leica MC170 HD microscope with a mounted camera (Leica M125 C) connected to a computer monitor. Drugs were diluted to their final concentration in sodium saline (0.9% NaCl) and administered via catheter at 0.1 ml/25 g of weight. Cranial window images before and after drug administration were acquired every 60 seconds for subsequent analysis.

SMILES: CCO [EtOH, ethanol]
- EtOH concentration close to EC100 for MCA constriction [1]: ~50 mM
- change in artery diameter (EtOH-induced constriction) ([1]; EtOH 10mM): -3.481 and -2.957 and -4.155 and -5.135 and -0.8602
- change in artery diameter (EtOH-induced constriction) ([1]; EtOH 35mM): -3.0303 and -4.876 and -3.6836 and -8.271 and -6.594
- change in artery diameter (EtOH-induced constriction) ([1]; EtOH 50mM): -6.879 and -7.897 and -7.7 and -14.4262 and -10.9422
- change in artery diameter (EtOH-induced constriction) ([1]; EtOH 75mM): -7.692 and -11.3856 and -9.864 and -10.7879 and -9.705
- constriction of MCA [2]: constriction was still observed
- artery diameter, normalized to time 0 ([3]; time 0): 1 (5×) and 0.9973
- artery diameter, normalized to time 0 ([3]; time 1): 1 (2×) and 0.9893 and 0.9693 and 1.069 and 0.888
- artery diameter, normalized to time 0 ([3]; time 2): 0.8687 and 0.8304 and 0.7155 and 0.777 and 1.057 and 0.6934
- artery diameter, normalized to time 0 ([3]; time 3): 0.7831 and 1 and 0.7857 and 0.8444 and 1.014 and 0.8086
- artery diameter, normalized to time 0 ([3]; time 4): 0.7004 and 0.7657 and 0.7155 and 0.7188 and 0.9449 and 0.6934
- artery diameter, normalized to time 0 ([3]; time 5): 0.6515 and 0.8304 and 0.7857 and 0.7691 and 0.9335 and 0.8086
- artery diameter, normalized to time 0 ([3]; time 6): 0.7831 and 1 and 0.8849 and 0.8691 and 0.8118 and 0.8086
- artery diameter, normalized to time 0 ([3]; time 7): 0.7397 and 0.7657 and 0.8849 and 0.7997 and 0.85 and 0.8086
- artery diameter, normalized to time 0 ([3]; time 8): 0.7004 and 1 and 0.9584 and 0.8381 and 0.823 and 0.6934
- artery diameter, normalized to time 0 ([3]; time 9): 0.6515 and 0.9469 and 0.8849 and 0.7942 and 0.8049 and 0.6934
- artery diameter, normalized to time 0 ([3]; time 10): 0.6515 and 1 and 0.8849 and 0.8075 and 0.8892 and 0.6934
- artery diameter, normalized to time 0 ([3]; time 11): 0.7831 and 1 and 0.8231 and 0.8249 and 0.8605 and 0.6934
- artery diameter, normalized to time 0 ([3]; time 12): 0.7004 and 0.9469 and 0.9893 and 0.8811 and 0.8191 and 0.888
- artery diameter, normalized to time 0 ([3]; time 13): 0.6515 and 0.8304 and 0.8849 and 0.7651 and 0.797 and 0.6934
- artery diameter, normalized (group comparison) ([3]; Fig 8F): 0.6886 and 0.733 and 0.6331 and 0.6127 and 0.7046 and 0.7541
